Values quoted from earlier work as cited in US20100056488A1, “CORTICOSTEROID CONJUGATES AND USES THEREOF” (The McLean Hospital Corporation, priority 2002, published 2010).

How the values were obtained:
[1] = system: cortisol production or ACTH; settings: suppression of cortisol production or ACTH
[2] = system: corticosterone production; settings: suppression for 24 hours
[3] = system: ether-stress induced increase in corticosterone; settings: dose 0.025 mg/kg; higher dose necessary to fully eliminate response

CNS activity [1] | SMILES | lowest dose fully effective in suppressing basal corticosterone production [2] | suppression of ether-stress induced increase in corticosterone [3]
CNS active | C[C@]12CCC(=O)C=C1CC[C@@H]1[C@@H]2[C@@H](O)C[C@@]2(C)[C@H]1CC[C@]2(O)C(=O)COC(=O)CCC(=O)O [Hydrocortisone sodium succinate] | – | –
– | C[C@@H]1C[C@H]2[C@@H]3CCC4=CC(=O)C=C[C@]4(C)[C@@]3(F)[C@@H](O)C[C@]2(C)[C@@]1(O)C(=O)CO [dexamethasone] | 0.025 mg/kg | significantly suppressed
